29 compounds from ChEMBL document CHEMBL1201862, “PubChem BioAssay data set” (2004) can be followed below.

Calls of active or inactive are those of the source.

Targets include Cytochrome P450 2C9 (Homo sapiens, UniProt P11712); Cytochrome P450 2D6 (Homo sapiens, UniProt P10635); Cytochrome P450 3A4 (Homo sapiens, UniProt P08684).
Assay [1] can be described thus: Luminescence Cell-Based Dose Retest to Confirm Inhibitors of Cancer Stem Cells. [Related pubchem assays (depositor defined):AID2717, AID2721]. It counts as functional. The settings on record: Homo sapiens.
The nature of assay [2]: viability of uninfected HEp-2 cells – cell-based, HTS, cytotoxicity control for RSV inhibitor project, dose response (AID 2410). Format: functional. The settings on record: human respiratory syncytial virus.
Assay [3] can be described thus: Luminescence Cell-Based Dose Response HTS to Identify Activators of Luciferase Translation or Activity in H4 […] Cells. [Related pubchem assays: 1829 (Project Summary), 1814 (Primary HTS)]. It counts as functional.
For a further assay, the system named is H4. The experiment in a line: Luminescence Cell-Based Dose Response HTS to Identify Activators of 5'UTR Stem-Loop Driven Prion Protein mRNA Translation in H4 Neuroglioblastoma Cells. [Related pubchem assays: 1829 (Project Summary), 1814 (Primary HTS)]. It counts as functional. The conditions noted are these: Homo sapiens.
A short description of assay [4]: Luminescence Cell-Based Dose Confirmation HTS to Identify Activators of 5'UTR Stem-Loop Driven Alpha-Synuclein mRNA Translation in H4 Neuroglioblastoma Cells. [Related pubchem assays: 1829 (Project Summary), 1814 (Primary HTS)]. Format: functional.
Assay [5] relates to Streptococcus sp. 'group A'. The experiment in a line: Streptococcus pyogenes SK(-)GAS viability under kanamycin – luminescence, BacTiterGlo, confirmation, counter-screen for streptokinase expression inhibitor project, dose response (AID 1900). Format: functional, organism-based.
For another assay, the system named is Streptococcus. The experiment in a line: GAS UMAA2166 growth inhibition – luminescence, BacTiterGlo, counter-screen for streptokinase expression inhibitor project, dose response (AID 1915).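 Also: potency for reduction of bacterial viability or growth.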 It counts as functional, organism-based. (In general: A counterscreen serves to expose hits that act by an unwanted route or on another target.)
Another assay has as its target T1, Streptokinase A (Streptococcus pyogenes serotype M1, UniProt P10520).
T1 sequence (P10520 whole entry): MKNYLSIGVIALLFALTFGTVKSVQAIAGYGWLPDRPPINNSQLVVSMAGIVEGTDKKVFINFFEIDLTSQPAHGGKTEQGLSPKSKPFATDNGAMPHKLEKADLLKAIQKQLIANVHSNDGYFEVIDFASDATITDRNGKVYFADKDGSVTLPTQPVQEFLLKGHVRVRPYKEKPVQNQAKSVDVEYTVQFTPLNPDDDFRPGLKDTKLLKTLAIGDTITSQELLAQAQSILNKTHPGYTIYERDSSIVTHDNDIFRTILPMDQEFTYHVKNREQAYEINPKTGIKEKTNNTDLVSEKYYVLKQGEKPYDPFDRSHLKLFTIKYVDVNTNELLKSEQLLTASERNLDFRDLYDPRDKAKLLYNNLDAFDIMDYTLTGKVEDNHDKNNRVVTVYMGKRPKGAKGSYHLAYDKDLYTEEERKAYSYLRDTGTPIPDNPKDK
The experiment in a line: viability-normalized secreted streptokinase activity reduction – plasminogen activation absorbance, OD405, dose response (AID 1914).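 Also: secreted streptokinase activity via plasminogen activation per viability signal from cell pellet.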 Format: functional, Streptococcus pyogenes M1 GAS.

The next assay deals with T2, Cytochrome P450 1A2 (Homo sapiens, UniProt P05177).
T2 sequence (P05177 whole entry): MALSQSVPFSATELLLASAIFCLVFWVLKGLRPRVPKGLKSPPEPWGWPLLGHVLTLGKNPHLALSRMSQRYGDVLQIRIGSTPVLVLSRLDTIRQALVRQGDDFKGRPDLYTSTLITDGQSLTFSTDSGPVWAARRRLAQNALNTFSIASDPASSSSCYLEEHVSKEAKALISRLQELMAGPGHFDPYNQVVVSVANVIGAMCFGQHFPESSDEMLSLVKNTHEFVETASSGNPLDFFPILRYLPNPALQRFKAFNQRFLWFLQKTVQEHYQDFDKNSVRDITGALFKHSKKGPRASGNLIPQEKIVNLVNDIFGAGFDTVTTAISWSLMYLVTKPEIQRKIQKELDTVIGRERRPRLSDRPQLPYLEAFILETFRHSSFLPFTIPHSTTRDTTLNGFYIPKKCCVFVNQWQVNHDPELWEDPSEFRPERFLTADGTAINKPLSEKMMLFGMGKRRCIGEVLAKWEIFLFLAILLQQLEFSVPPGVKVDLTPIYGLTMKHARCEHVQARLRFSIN

The next assay has as its target Cytochrome P450 2C19 (Homo sapiens, UniProt P33261). As to the kind of experiment: Cytochrome panel assay with activity outcomes. Panel member name: p450-cyp2c19 Compounds with AC50 equal or less than 10 uM are considered active. Format: functional. The conditions noted are these: read-out: AC50.

Cytochrome P450 2D6, sequence (P10635 whole entry): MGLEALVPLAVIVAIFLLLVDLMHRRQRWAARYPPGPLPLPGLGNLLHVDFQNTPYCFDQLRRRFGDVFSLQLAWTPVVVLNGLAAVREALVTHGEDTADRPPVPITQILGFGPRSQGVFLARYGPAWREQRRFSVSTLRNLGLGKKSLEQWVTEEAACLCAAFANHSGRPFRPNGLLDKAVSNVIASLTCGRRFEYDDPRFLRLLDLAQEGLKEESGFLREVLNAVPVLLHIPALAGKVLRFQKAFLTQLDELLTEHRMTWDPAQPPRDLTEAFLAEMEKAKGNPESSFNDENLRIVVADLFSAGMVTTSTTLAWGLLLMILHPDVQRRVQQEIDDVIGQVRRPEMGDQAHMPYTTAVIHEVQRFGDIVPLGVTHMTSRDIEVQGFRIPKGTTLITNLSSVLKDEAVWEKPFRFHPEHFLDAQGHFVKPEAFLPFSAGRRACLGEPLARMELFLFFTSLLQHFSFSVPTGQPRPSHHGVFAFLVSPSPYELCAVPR
Cytochrome P450 2C9, sequence (P11712 whole entry): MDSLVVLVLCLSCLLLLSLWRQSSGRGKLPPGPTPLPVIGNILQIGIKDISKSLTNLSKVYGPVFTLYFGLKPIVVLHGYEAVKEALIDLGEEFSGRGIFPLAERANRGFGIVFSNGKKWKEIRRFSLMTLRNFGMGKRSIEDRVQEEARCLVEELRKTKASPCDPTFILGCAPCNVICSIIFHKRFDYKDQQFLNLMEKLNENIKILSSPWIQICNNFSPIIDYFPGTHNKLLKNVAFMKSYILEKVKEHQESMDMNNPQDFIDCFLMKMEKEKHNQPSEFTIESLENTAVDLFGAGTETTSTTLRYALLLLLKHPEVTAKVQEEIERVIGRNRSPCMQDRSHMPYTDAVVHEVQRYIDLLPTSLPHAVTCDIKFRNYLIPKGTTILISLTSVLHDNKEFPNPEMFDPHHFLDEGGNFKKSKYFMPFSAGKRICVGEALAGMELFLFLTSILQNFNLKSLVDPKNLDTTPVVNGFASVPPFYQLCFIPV
Cytochrome P450 3A4, sequence (P08684 whole entry): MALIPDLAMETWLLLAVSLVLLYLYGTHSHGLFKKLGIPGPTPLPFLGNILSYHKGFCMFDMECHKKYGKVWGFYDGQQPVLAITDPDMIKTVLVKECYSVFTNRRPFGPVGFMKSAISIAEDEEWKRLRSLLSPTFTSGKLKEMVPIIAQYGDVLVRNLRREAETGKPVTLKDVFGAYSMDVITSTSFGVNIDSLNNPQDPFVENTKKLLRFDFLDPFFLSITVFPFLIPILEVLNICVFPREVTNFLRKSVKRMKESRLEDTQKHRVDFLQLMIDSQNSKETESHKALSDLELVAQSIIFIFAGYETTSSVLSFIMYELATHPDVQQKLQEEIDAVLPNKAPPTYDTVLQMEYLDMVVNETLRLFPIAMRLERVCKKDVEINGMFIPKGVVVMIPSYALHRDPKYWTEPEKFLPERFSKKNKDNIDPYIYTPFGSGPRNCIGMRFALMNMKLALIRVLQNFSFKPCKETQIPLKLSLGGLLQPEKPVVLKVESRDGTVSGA
Cytochrome P450 2C19, sequence (P33261 whole entry): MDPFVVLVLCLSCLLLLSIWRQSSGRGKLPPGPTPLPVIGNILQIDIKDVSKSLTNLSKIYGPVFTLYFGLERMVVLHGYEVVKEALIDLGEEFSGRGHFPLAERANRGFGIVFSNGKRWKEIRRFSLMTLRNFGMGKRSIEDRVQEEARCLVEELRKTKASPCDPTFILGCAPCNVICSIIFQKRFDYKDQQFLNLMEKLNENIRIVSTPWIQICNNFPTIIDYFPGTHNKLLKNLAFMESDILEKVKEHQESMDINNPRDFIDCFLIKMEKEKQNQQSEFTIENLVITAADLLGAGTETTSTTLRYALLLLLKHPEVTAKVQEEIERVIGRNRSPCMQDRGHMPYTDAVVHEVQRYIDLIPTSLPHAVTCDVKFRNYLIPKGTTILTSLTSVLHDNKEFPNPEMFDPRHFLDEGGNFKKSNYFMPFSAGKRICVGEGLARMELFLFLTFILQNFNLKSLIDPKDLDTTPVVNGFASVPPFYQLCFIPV

As for `COc1ccc(NC(=O)CSc2nc3ccccc3cc2Cc2ccccc2)cc1`, the figures for the AC50 at Cytochrome P450 2C9 and at Cytochrome P450 2D6 were 1.26 µM (inconclusive) and 0.2 µM (inconclusive), respectively. For `COc1ccc(-c2cc(C(F)F)nc(-n3nc(C)cc3C)n2)cc1`, on Cytochrome P450 2D6, the concentration at half-maximal activity (AC50) is 22.4 µM (inconclusive). As to `CCc1ccc(N(CC(=O)Nc2nc3ccc(C)cc3s2)S(=O)(=O)c2c(C)noc2C)cc1`, the concentration at half-maximal activity (AC50) in assay [1] is 3.45 µM (active).

Regarding `CCN(CC)S(=O)(=O)c1cccc(NC(=O)c2cc3ccccc3o2)c1`, in [2], the CC50 is 10.9 µM (active). As for `CCNc1ncc2nc(-c3ccc(F)cc3)c(=O)n(C[C@H]3CCCO3)c2n1`, at Cytochrome P450 2D6, the AC50 is 0.631 µM (inconclusive). On the same count and under the same terms, in the case of `Oc1ccc(Cl)cc1/C=N\c1cnc2ccccc2c1` it was 5.01 µM (inconclusive). As to `Cc1nc2ccccc2c(=O)n1-c1ccc(Br)cn1`, the EC50 (in [3]; in the assay with H4; in assay [4]) was > 120 µM (not active) each time. As for `CCN(c1ccccc1)S(=O)(=O)c1ccc(NC(=S)NC(=O)c2ccc(Br)o2)cc1`, the concentration at half-maximal activity (AC50) at Cytochrome P450 2D6 is 3.16 µM (inconclusive).

Turning to `Cc1csc(SCC(=O)c2c(N)n(C)c(=O)n(C)c2=O)n1`, the EC50 is 29.5 µM (active) in assay [3], > 120 µM (not active) in the assay on H4 and 2.14 µM (active) in [4]. Consider `CCCCNC(=O)Cn1nc([N+](=O)[O-])c([N+](=O)[O-])c1C`, for which the concentration for a half-maximal effect (EC50) is 11.1 µM (active) in [3], 35.2 µM (active) in the assay on H4 and > 120 µM (not active) in [4]. As to `CC(C)(C)c1ccc(-c2noc(-c3ccc4c(c3)CCO4)n2)cc1`, the EC50 is 5.26 µM (active) in assay [5]; > 150 µM (not active) in the assay on Streptococcus; 46 µM (active) at Streptokinase A; 2.25 µM (active) in [3]; 0.553 µM (active) in the assay with H4; 0.493 µM (active) in assay [4]. Consider `CN1CCN(c2ncncc2-c2ccccc2C(F)(F)F)CC1`, for which the values for the concentration at half-maximal activity (AC50) at Cytochrome P450 1A2, at Cytochrome P450 2D6 and at Cytochrome P450 3A4 were 31.6 µM (inconclusive), 20 µM (inconclusive) and 3.98 µM (inconclusive), respectively. With `Cc1ccc(-n2c([S-])c(C(=O)Nc3ccc(OC(F)F)cc3)[n+]3ccc(C(=O)NCCO)cc23)cc1C`, the concentration for a half-maximal effect (EC50) was > 120 µM (not active) in assay [3], 21.3 µM (active) in the assay on H4 and 7.99 µM (active) in assay [4].

In the case of `CCC(=O)O[C@@]1(C(=O)CCl)[C@@H](C)C[C@@H]2[C@H]3CCC4=CC(=O)C=C[C@@]4(C)[C@]3(F)[C@@H](O)C[C@@]21C`, the AC50 on Cytochrome P450 2C9 is 15.8 µM (inconclusive); on Cytochrome P450 2D6 it was 10 µM (inconclusive). `Cc1c(C(=O)N(CCc2ccccc2)Cc2ccccc2)cccc1[N+](=O)[O-]`: the CC50 in assay [2] was 25.5 µM (active). Regarding `CCC(C)(C)NC(=O)CSc1nc(Cc2ccccc2)nc2ccccc12`, in assay [2], the CC50 is > 50 µM (active). The same measure, in the same setting: as for `CCc1ccc(Nc2cnn(-c3nc4ccccc4s3)c(=O)c2Cl)cc1`, the figure is 44.6 µM (active). In the case of `Cc1ccc(C)n1-c1ccc(C(=O)Nc2ccccc2F)cc1`, the EC50 in [3] is 43.1 µM (active); in the assay on H4, 14.5 µM (active); in assay [4], 11.6 µM (active). `O=C(CCc1nc(-c2ccccc2)no1)NCCc1ccccc1`: the concentration at half-maximal activity (AC50) is 15.8 µM (inconclusive) at Cytochrome P450 2C9 and 39.8 µM (inconclusive) at Cytochrome P450 2D6. Take `Cc1noc(C)c1C(=O)Nc1ccc(C#N)cc1`: the CC50 in assay [2] is 23.4 µM (active).

Consider `Cc1ccc(-c2noc(CCC(=O)NCCCN3CCN(c4cccc(Cl)c4)CC3)n2)cc1`, for which the CC50 in [2] was > 50 µM (active). For `C[C@@H]1CC[C@]2(C(=O)O)CC[C@]3(C)C(=CCC4[C@]56CC[C@@](O)(OC5)C(C)(C)C6CC[C@]43C)C2[C@H]1C` (stereo partly specified), the AC50 in [1] is 5.61 µM (active). For the compound `COc1ccc(/N=C2/C(=N\c3ccc(OC)cc3)N(c3ccccc3)C(=S)N2C(=O)c2ccc(Cl)cc2)cc1`, the 50% effective concentration (EC50) was 47.3 µM (active) in [3], 18.7 µM (active) in the assay on H4 and 41.1 µM (active) in [4].

Turning to `Cc1cc(O)nc(N/N=C/c2ccc(-c3ccc(F)cc3)o2)n1`, the AC50 in assay [1] is 9.21 µM (active).

Consider `CSc1nncn1/N=C/c1ccc2c(c1)OCO2`, for which the AC50 on Cytochrome P450 2D6 was 22.4 µM (inconclusive); at Cytochrome P450 2C19 it was 25.1 µM (inconclusive). As for `Clc1cccc(Nc2nnc(-c3ccccc3)c3ccccc23)c1`, the values for the AC50 on Cytochrome P450 2D6 and at Cytochrome P450 3A4 were 2 µM (inconclusive) and 7.94 µM (inconclusive), respectively. Consider `O=C1c2cccc3c([N+](=O)[O-])ccc(c23)C(=O)N1CCc1ccccn1`, for which, in assay [2], the CC50 was 7.83 µM (active).

As to `C=C1C[C@@H]2[C@H](CC[C@]3(C)C(=O)CC[C@@H]23)[C@@]2(C)C=CC(=O)C=C12` [EXEMESTANE], the EC50 is 6.44 µM (active) in assay [3], 26.7 µM (active) with H4 and 2.79 µM (active) in assay [4]. Consider `Cc1cc(C(C)(C)CC(C)(C)C)ccc1OCCOCC[N+](C)(C)Cc1ccccc1` [METHYLBENZETHONIUM], for which the AC50 at Cytochrome P450 1A2 and on Cytochrome P450 2D6 was 12.6 µM (inconclusive) throughout.

Usually AC50 stands for the concentration giving half of the maximal activity seen. One may read the CC50 as the concentration giving 50% cytotoxicity. Usually EC50 stands for the concentration giving half of the maximal effect.
